Reference: ChEMBL document CHEMBL4385619, “Identification of topoisomerases as molecular targets of cytosporolide C and its analog” (Bioorg Med Chem, 2019)
Active and inactive are the calls of the source. The rule behind the calls is not given here.

Legend:
[1] = tested on: HCT-116; assay: Antiproliferative activity against human HCT116 cells assessed as reduction in cell viability measured after 72 hrs by MTT assay; assay type: functional, cell-based; conditions: HCT-116, 72 h
[2] = tested on: A549; assay: Antiproliferative activity against human A549 cells assessed as reduction in cell viability measured after 72 hrs by MTT assay; assay type: functional, cell-based; conditions: A549, 72 h
[3] = molecular target: T1, DNA topoisomerase 1 (Escherichia coli (strain K12)) (UniProt P06612); assay: Inhibition of Escherichia coli topoisomerase 1 mediated DNA relaxation using plasmid pMT-puro DNA as substrate after 30 mins by ethidium bromide staining-based agarose gel electrophoresis method
T1 sequence (whole entry): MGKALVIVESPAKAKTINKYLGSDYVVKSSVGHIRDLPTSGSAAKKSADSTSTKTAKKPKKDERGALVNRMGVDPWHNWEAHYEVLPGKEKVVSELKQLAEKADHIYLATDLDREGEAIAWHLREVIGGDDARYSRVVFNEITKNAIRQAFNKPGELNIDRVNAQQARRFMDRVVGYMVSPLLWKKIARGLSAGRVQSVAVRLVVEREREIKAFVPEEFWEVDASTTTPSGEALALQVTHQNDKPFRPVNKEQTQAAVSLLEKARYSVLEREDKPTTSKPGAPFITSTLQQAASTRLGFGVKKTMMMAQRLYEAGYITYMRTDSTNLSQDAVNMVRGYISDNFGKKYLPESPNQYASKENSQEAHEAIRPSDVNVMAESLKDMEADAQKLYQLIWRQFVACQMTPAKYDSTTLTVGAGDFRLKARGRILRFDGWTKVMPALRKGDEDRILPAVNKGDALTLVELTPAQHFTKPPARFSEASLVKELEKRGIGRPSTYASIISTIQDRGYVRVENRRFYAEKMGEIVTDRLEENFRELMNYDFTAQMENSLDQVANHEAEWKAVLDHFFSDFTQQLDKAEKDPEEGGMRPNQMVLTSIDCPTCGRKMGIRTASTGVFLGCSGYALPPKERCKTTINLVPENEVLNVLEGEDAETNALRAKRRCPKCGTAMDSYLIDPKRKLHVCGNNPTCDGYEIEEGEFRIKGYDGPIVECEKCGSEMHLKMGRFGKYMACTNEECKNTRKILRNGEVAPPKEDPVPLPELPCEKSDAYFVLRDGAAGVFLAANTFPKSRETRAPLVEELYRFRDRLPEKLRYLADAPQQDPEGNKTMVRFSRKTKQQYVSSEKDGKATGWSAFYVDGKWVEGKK

[4] = tested on: MCF7; assay: Antiproliferative activity against human MCF7 cells assessed as reduction in cell viability measured after 72 hrs by MTT assay; assay type: functional, cell-based; conditions: MCF7, 72 h
[5] = molecular target: T1, DNA topoisomerase 1 (Escherichia coli (strain K12)); assay: Inhibition of Escherichia coli topoisomerase 1 mediated DNA relaxation at 10 uM using plasmid pMT-puro DNA as substrate after 30 mins by ethidium bromide staining-based agarose gel electrophoresis method
[6] = molecular target: DNA topoisomerase 2-alpha (Homo sapiens) (UniProt P11388); assay: Inhibition of human DNA topoisomerase 2 mediated decatenation at 10 uM using kDNA as substrate after 30 mins by ethidium bromide staining-based agarose gel electrophoresis method
[7] = molecular target: T1, DNA topoisomerase 1 (Escherichia coli (strain K12)); assay: Inhibition of Escherichia coli topoisomerase 1 mediated DNA relaxation at 1 uM using plasmid pMT-puro DNA as substrate after 30 mins by ethidium bromide staining-based agarose gel electrophoresis method

Chain of DNA topoisomerase 2-alpha (Homo sapiens) (P11388 whole entry): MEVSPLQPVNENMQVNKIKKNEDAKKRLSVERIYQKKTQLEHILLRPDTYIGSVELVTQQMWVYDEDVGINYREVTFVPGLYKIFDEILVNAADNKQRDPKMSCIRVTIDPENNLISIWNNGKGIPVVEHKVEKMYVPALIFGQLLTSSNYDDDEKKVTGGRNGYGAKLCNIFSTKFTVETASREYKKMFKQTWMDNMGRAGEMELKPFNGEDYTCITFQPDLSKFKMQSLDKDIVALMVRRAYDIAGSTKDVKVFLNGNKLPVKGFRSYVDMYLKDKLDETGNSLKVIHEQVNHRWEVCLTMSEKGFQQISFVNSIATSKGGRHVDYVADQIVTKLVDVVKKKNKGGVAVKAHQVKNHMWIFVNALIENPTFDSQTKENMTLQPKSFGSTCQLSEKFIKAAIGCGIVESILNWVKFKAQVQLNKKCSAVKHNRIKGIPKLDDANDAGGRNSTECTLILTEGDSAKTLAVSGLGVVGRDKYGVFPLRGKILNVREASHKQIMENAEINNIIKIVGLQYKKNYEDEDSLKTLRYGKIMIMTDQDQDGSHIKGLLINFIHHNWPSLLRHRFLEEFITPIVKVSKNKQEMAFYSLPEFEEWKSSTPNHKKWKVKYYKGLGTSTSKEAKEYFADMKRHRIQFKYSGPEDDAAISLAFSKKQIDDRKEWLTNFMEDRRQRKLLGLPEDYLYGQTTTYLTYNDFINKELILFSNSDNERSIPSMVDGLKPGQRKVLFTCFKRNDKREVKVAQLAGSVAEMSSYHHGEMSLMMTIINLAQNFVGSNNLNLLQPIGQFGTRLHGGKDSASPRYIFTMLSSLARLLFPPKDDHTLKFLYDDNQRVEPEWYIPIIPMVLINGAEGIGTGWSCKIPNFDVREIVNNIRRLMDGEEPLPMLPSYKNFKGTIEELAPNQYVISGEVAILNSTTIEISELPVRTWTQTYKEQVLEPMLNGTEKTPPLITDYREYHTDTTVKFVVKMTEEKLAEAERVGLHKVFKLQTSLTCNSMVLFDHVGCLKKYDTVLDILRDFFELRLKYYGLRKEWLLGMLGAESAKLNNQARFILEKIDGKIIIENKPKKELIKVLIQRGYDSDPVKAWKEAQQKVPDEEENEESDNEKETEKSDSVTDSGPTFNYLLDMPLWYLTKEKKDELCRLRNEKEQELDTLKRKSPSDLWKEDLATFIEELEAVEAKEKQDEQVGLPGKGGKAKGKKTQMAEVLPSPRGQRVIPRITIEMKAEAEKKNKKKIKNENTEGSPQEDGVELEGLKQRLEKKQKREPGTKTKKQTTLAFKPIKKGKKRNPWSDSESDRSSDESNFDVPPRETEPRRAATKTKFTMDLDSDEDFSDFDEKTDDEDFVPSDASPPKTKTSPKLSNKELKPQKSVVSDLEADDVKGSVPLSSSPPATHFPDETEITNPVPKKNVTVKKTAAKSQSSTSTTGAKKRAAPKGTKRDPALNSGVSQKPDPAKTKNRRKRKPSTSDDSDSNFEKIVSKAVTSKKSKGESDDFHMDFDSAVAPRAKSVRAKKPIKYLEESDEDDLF

| SMILES | IC50 [1] [µM] | IC50 [2] [µM] | inhibition [3] | IC50 [4] [µM] | inhibition [5] | inhibition [6] | inhibition [7] |
| --- | --- | --- | --- | --- | --- | --- | --- |
| C=C1CC[C@@H]2[C@H]3O[C@H](CCCCCCC)Cc4cc(O)c(C(=O)O)c(c43)O[C@@]2(C)CC[C@@H]2[C@@H]1CC2(C)C | 3.91 | 5.01 | Dose-dependent effect | 7.28 | Active | Active | – |
| CCCCCCC[C@@H]1Cc2cc(O)c(C(=O)O)c(O)c2[C@H](O)O1 | > 10 | > 10 | – | > 10 | inactive | Active | – |
| CCCCCCC[C@@H]1Cc2cc(O)c(C(=O)O)c3c2[C@H](O1)[C@H]1[C@@H](OC)/C=C(/COC(C)=O)[C@H]2CC(C)(C)[C@]2(O)[C@@H](OC(C)=O)C[C@]1(C)O3 | > 10 | > 10 | – | > 10 | inactive | inactive | – |
| CCCCCCC[C@@H]1Cc2cc(O)c(C(=O)O)c3c2[C@H](O1)[C@H]1[C@@H](OC)/C=C(/COC(C)=O)[C@H]2CC(C)(C)[C@]2(O)[C@@H](O)C[C@]1(C)O3 | 5.98 | 6.31 | – | 8.88 | Active | inactive | – |
| CC[C@@]1(O)C(=O)OCc2c1cc1n(c2=O)Cc2cc3ccccc3nc2-1 | – | – | – | – | – | – | Active |
| CO[C@@H]1/C=C(\C)C[C@H](OC(C)=O)[C@]2(O)[C@H](CC2(C)C)/C(COC(C)=O)=C\1 | > 10 | > 10 | – | > 10 | inactive | inactive | – |
| C[C@H]([C@H](C)N1CC(=O)NC(=O)C1)N1CC(=O)NC(=O)C1 | – | – | – | – | – | Active | – |
| CO[C@@H]1/C=C(\C)C[C@H](O)[C@]2(O)[C@H](CC2(C)C)/C(CO)=C\1 | > 10 | > 10 | – | > 10 | inactive | inactive | – |
| CCCCCCC[C@@H]1Cc2cc(O)c(C(=O)O)c3c2[C@H](O1)[C@H]1[C@@H](OC)/C=C(/CO)[C@H]2CC(C)(C)[C@]2(O)[C@@H](O)C[C@]1(C)O3 | > 10 | > 10 | – | > 10 | inactive | inactive | – |
